# Test results from US7102056B1, “Compositions and methods for plant transformation and regeneration” (The Regents of the University of California, priority 1997, dated 2006).
# Assays:
# [1] = test system: nontransgenic callus tissues of Golden Promise; experiment: Regeneration via an intermediate-incubation step, nontransgenic callus; assay type: cell-based, barley; conditions: two-month-old callus of Golden Promise maintained on CIM containing the auxin alone
# Procedure: Callus induction was performed as described above using CIM with 2.5 mg/L of 2,4-D or dicamba (no cytokinin). After incubation for three weeks at 24±1° C. in the dark, callus was cut into small pieces (about 3 to 4 mm), then maintained on the same medium with subculturing at three-week intervals.
# Ten pieces of two-month-old nontransgenic calli grown on CIM supplemented with either 2,4-D or dicamba in the dark were transferred to RM either directly or following incubation on an IIM.
# Two different IIM were used, DBC2 and DBC3. DBC2 medium is CIM containing 2.5 mg/L 2,4-D, 0.1 mg/L BAP, and 5.0 μM copper (cupric sulfate). DBC3 medium is CIM containing 1.0 mg/L 2,4-D, 0.5 mg/L BAP, and 5.0 μM copper. After growing calli on these media for 3-4 weeks under dim light conditions (20 to 30 μE; 16 h light/8 h dark), the numbers of calli producing green sectors or green regenerative structures were counted. Green sectors and small green regenerative structures were then transferred to fresh RM and grown under higher light intensity (45-55 μE). After 3-4 weeks, the numbers of green shoots per callus piece were counted. […]
# Galena immature embryos = experiment: Callus-induction frequency on callus-induction media (CIM); assay type: cell-based, barley (Hordeum vulgare L.); conditions: Galena half embryos on CIM; 2 to 3 weeks after initial culturing; means ± SD of three replicates
# Procedure: (§1) Immature embryos (about 1.5-2.5 mm in size) were taken from spikes approximately three months in age that were surface-sterilized in 20% (v/v) bleach (5.25% sodium hypochlorite) for 7 min. washed 5 min with sterile water three times, bisected longitudinally, and placed on CIM. Ten half-embryos were tested on CIM supplemented with each of the fourteen phytohormone combinations; each treatment had three replicates. (Whole embryos can also be used.) Callus-induction frequency was measured by counting numbers of half embryos undergoing callus induction under a light microscope 2 to 3 weeks after initial culturing.
# (§2) Immature zygotic embryos about 1.5 to 2.5 mm in size were dissected and isolated intact under a stereo dissecting microscope from seeds that were surface-sterilized for 10 min in 20% (v/v) bleach (5.25% sodium hypochlorite) followed by three washes in sterile water. The embryos were placed scutellum-side down on CIM.
# (§3) Six different CIMs were used to test callus-induction frequencies and callus quality. The CIMs had, respectively, different concentrations of: 2,4-D (1.0 and 2.5 mg/L), BAP (0.01, 0.1 and 0.5 mg/L), and cupric sulfate (CuSO4; 0.1 and 5.0 μM) as shown in Table 7.
# (§4) The initial callus-induction frequency was determined using CIM of different compositions. Ten immature embryos from the barley genotypes Golden Promise and Galena were transferred to each CIM. Each CIM contained the following levels of hormones and copper: D, 2.5 mg/L 2,4-D and 0.1 μM CuSO4; DC, 2.5 mg/L 2,4-D and 5.0 μM CuSO4; DB, 2.5 mg/L 2,4-D, 0.1 mg/L BAP, 0.1 μM CuSO4; DBC1, 2.5 mg/L 2,4-D, 0.01 mg/L BAP and 5.0 μM CuSO4; DBC2, 2.5 mg/L 2,4-D, 0.1 mg/L BAP and 5.0 μM CuSO4; DBC3, 1.0 mg/L 2,4-D, 0.5 mg/L BAP and 5.0 μM CuSO4. Callus quality was assessed microscopically and scored on a scale with ++++ designating highest quality and +designating lowest quality. Values were measured three weeks after initial callus induction and represent means of three replicates for each treatment. […] Tissue quality was poor on CIM containing BAP three weeks after induction but improved after two to three transfers on this medium. Only a fraction of scutellar tissues on Galena immature embryos formed callus, while most of the scutellar surface on Golden Promise immature embryos formed high-quality callus.
# [2] = test system: Golden Promise immature embryos; experiment: as above; assay type: cell-based, barley (Hordeum vulgare L.); conditions: Golden Promise half embryos on CIM; 2 to 3 weeks after initial culturing; means ± SD of three replicates
# Procedure: as §1, §2, §3, §4
# [3] = test system: Golden Promise immature embryos; experiment: Callus quality on twelve callus-induction media (auxin types, copper); assay type: cell-based, barley
# Procedure: (§5) To examine the effects of different types of auxins and concentrations of copper on callus quality and regenerability in barley, twelve different media were tested, using methods essentially as described in Example 2 above.
# calli of Golden Promise = experiment: Regenerability of calli from twelve callus-induction media (auxin types, copper); assay type: cell-based, barley
# Procedure: as §5
# [4] = test system: green tissue of Golden Promise, Galena and Harrington; experiment: Selection and regeneration of bombarded green tissues with selective agents; assay type: cell-based; conditions: bombarded barley green tissues under selection
# Procedure: The green regenerative tissues generated and maintained on one or two of these media, DBC2 (comprising 2.5 mg/L 2,4-D, 0.1 mg/L BAP and 5.0 μM CuSO4, Cho et al., 1998) or DBC3 (comprising 1.0 mg/L 2,4-D, 0.5 mg/L BAP and 5.0 μM CuSO4, Cho et al., 1998), were used directly as transformation targets. For bombardment, 3 to 4 mm pieces of green tissue of Golden Promise, Galena and Harrington, removed 3 to 4 months after initiation of the original culture, were osmotically treated on DBC2 or DBC3 medium and bombarded the same day with three different selection constructs, ubi-bar/ubi-uidA, ubi-nptII/ubi-uidA and act-hpt/ubi-uidA. […] Sixteen to 18 hr post-bombardment, green tissues were transferred without osmoticum or selective agent to dim light on DBC2 or DBC3 medium for Golden Promise and Harrington or DBC3 for Galena. Selection with all agents started […] post-bombardment to allow for proliferation of transformed cells in the absence of the cell death resulting from wounding or selection. At that time, tissue was broken into pieces (3-5 mm) and transferred to either DBC2 or DBC3 medium (depending on morphology) with 3 mg/L bialaphos (bar), 20-25 mg/L hygromycin B (hpt) or 30 mg/L G418 (nptII), depending on the construct used. Starting with the third round of selection, levels of selective agent were increased to 45 mg/L bialaphos, 25 mg/L hygromycin B or 40 mg/L G418. […]
SMILES,green shoots per callus piece [1],Callus Induction Frequency (%) GAL (Galena immature embryos) [%],Callus Induction Frequency (%) GP [2] [%],induction of calli which regenerated green plants (calli of Golden Promise),albino plants during regeneration of selected tissues [4],other results
"O=C(O)COc1ccc(Cl)cc1Cl [2,4-D, 2,4-dichlorophenoxyacetic acid]",0.35,~100,~100,,,
O=C(O)Cc1c[nH]c2ccccc12 [IAA],,,,Neither IAA nor NAA was optimal,,callus quality [3]: poorer callus quality than the other auxins
O=C(O)Cc1cccc2ccccc12 [NAA],,,,Neither IAA nor NAA was optimal,,
C[C@H](NC(=O)[C@H](C)NC(=O)[C@@H](N)CCP(C)(=O)O)C(=O)O [bialaphos],,,,,no albino plants were observed,
COc1c(Cl)ccc(Cl)c1C(=O)O [dicamba],1.15,~100,~100,,,
CN[C@H]1C[C@@H](N)[C@H](O)[C@@H](O[C@@H]2O[C@H](CO)[C@H](O)[C@@H]3OC4(O[C@H]23)O[C@H]([C@@H](N)CO)[C@H](O)[C@H](O)[C@H]4O)[C@@H]1O (some centres unmarked) [hygromycin B],,,,,frequently albino plants were observed,
